Laboratory results: ChEMBL document CHEMBL5465560, “Selectivity Literature for EUbOPEN Chemogenomic Library” (2024)

Experiments:
[1] = target: Wee1-like protein kinase (Homo sapiens) (UniProt P30291); conditions: at 10 µM
[2] = target: Tyrosine-protein kinase HCK (Homo sapiens) (UniProt P08631); conditions: at 10 µM
[3] = target: Serine/threonine-protein kinase/endoribonuclease IRE1 (Homo sapiens) (UniProt O75460); assay: Selectivity interaction (Ambit KINOMEscan and KiNATiv profiling in Jurkat cells) EUB0000090b ERN1; type: cell-based; conditions: at 1 µM
[4] = target: T1, Ephrin type-B receptor 3 (Homo sapiens) (UniProt P54753); assay: Selectivity interaction (Kinase panel (DSF assay)) EUB0001559a EPHB3
T1 sequence (whole entry): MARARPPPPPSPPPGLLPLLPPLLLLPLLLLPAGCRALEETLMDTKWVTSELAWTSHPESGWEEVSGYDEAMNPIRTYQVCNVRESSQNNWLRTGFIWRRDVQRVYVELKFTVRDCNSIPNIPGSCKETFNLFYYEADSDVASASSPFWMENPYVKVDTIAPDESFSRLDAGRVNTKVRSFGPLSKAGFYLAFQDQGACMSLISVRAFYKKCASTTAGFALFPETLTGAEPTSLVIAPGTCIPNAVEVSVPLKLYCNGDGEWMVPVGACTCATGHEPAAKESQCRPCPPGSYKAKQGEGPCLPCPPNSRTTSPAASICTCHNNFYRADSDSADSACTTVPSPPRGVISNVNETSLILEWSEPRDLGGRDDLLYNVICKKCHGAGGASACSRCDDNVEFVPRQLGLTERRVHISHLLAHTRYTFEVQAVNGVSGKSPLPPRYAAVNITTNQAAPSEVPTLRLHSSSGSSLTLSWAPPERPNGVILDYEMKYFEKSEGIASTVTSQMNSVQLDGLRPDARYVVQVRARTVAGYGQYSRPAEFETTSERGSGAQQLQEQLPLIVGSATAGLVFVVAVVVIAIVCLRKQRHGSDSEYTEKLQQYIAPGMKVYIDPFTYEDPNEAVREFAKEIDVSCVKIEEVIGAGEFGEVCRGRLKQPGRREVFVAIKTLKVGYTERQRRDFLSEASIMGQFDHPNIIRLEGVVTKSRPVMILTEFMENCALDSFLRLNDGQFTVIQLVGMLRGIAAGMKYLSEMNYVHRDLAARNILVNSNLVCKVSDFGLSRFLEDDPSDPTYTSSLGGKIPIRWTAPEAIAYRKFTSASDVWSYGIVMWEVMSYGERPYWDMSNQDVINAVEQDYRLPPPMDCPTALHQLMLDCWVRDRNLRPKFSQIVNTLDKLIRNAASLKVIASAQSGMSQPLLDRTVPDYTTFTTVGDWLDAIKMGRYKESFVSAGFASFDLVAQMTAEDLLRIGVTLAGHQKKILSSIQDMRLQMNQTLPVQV

[5] = target: Cyclin-dependent kinase 18 (Homo sapiens) (UniProt Q07002); assay: Selectivity interaction (KinomeScan (DiscoverX)) EUB0000607a CDK18; conditions: at 10 µM
[6] = target: T2, Aurora kinase C (Homo sapiens) (UniProt Q9UQB9); assay: Selectivity interaction (KinomeScan (DiscoverX)) EUB0000607a AURKC; conditions: at 10 µM
T2 sequence (whole entry): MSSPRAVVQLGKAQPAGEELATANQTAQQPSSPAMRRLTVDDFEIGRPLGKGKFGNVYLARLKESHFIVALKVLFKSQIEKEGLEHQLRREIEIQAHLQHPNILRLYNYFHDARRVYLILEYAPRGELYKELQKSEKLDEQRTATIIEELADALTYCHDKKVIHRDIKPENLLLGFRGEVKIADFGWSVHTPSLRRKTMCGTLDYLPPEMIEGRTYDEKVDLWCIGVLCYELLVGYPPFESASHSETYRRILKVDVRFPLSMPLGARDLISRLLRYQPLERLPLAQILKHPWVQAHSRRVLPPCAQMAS

[7] = target: Citron Rho-interacting kinase (Homo sapiens) (UniProt O14578); assay: Selectivity interaction (KinomeScan (DiscoverX)) EUB0001619a CIT; conditions: at 1 µM
[8] = target: Mitogen-activated protein kinase kinase kinase 4 (Homo sapiens) (UniProt Q9Y6R4); assay: Selectivity interaction (KinomeScan (DiscoverX)) EUB0000045b MAP3K4
[9] = target: STE20/SPS1-related proline-alanine-rich protein kinase (Homo sapiens) (UniProt Q9UEW8); conditions: at 10 µM
[10] = target: Serine/threonine-protein kinase WNK2 (Homo sapiens) (UniProt Q9Y3S1); assay: Selectivity interaction (ActivX KiNativ screen (kinase selectivity in THP-1 cell lysates)) EUB0000639a WNK2; type: subcellular; conditions: lysate
[11] = target: T3, Phosphatidylinositol 5-phosphate 4-kinase type-2 gamma (Homo sapiens) (UniProt Q8TBX8); assay: Selectivity interaction (ActivX KiNativ screen (kinase selectivity in THP-1 cell lysates)) EUB0000639a PIP4K2C; type: subcellular; conditions: lysate
T3 sequence (whole entry): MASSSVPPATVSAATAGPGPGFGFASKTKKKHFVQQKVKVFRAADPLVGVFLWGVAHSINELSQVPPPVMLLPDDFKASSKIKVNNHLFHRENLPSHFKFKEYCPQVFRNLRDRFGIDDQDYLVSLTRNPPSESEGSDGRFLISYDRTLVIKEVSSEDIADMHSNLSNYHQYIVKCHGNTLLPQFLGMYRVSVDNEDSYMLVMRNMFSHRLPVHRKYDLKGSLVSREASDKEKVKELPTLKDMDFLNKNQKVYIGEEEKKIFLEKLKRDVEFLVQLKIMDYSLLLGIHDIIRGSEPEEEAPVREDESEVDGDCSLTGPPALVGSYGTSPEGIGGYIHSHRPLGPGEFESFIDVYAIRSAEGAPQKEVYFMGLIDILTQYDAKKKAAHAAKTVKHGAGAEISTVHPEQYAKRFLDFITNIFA

[12] = target: Homeodomain-interacting protein kinase 1 (Homo sapiens, UniProt Q86Z02); assay: Selectivity interaction (KinomeScan (DiscoverX)) EUB0000229b HIPK1; conditions: at 10 µM
[13] = test system: Receptor-type tyrosine-protein kinase FLT3 (Homo sapiens), P36888 [UNDEFINED MUTATION]; assay: Selectivity interaction (KinomeScan (DiscoverX)) EUB0000229b FLT3; conditions: at 1 µM
[14] = target: Serine/threonine-protein kinase 25 (Homo sapiens) (UniProt O00506); assay: Selectivity interaction (ProQinase) EUB0000171b STK25
[15] = target: Ribosomal protein S6 kinase alpha-6 (Homo sapiens, UniProt Q9UK32); assay: Selectivity interaction (KinomeScan (DiscoverX)) EUB0001049a RPS6KA6; conditions: at 1 µM
[16] = target: NT-3 growth factor receptor (Homo sapiens, UniProt Q16288); assay: Selectivity interaction (Kinase panel (Z-LYTE Assay)) EUB0001632a NTRK3; conditions: at 10 µM

Sequence of Serine/threonine-protein kinase WNK2 (Homo sapiens) (Q9Y3S1 whole entry): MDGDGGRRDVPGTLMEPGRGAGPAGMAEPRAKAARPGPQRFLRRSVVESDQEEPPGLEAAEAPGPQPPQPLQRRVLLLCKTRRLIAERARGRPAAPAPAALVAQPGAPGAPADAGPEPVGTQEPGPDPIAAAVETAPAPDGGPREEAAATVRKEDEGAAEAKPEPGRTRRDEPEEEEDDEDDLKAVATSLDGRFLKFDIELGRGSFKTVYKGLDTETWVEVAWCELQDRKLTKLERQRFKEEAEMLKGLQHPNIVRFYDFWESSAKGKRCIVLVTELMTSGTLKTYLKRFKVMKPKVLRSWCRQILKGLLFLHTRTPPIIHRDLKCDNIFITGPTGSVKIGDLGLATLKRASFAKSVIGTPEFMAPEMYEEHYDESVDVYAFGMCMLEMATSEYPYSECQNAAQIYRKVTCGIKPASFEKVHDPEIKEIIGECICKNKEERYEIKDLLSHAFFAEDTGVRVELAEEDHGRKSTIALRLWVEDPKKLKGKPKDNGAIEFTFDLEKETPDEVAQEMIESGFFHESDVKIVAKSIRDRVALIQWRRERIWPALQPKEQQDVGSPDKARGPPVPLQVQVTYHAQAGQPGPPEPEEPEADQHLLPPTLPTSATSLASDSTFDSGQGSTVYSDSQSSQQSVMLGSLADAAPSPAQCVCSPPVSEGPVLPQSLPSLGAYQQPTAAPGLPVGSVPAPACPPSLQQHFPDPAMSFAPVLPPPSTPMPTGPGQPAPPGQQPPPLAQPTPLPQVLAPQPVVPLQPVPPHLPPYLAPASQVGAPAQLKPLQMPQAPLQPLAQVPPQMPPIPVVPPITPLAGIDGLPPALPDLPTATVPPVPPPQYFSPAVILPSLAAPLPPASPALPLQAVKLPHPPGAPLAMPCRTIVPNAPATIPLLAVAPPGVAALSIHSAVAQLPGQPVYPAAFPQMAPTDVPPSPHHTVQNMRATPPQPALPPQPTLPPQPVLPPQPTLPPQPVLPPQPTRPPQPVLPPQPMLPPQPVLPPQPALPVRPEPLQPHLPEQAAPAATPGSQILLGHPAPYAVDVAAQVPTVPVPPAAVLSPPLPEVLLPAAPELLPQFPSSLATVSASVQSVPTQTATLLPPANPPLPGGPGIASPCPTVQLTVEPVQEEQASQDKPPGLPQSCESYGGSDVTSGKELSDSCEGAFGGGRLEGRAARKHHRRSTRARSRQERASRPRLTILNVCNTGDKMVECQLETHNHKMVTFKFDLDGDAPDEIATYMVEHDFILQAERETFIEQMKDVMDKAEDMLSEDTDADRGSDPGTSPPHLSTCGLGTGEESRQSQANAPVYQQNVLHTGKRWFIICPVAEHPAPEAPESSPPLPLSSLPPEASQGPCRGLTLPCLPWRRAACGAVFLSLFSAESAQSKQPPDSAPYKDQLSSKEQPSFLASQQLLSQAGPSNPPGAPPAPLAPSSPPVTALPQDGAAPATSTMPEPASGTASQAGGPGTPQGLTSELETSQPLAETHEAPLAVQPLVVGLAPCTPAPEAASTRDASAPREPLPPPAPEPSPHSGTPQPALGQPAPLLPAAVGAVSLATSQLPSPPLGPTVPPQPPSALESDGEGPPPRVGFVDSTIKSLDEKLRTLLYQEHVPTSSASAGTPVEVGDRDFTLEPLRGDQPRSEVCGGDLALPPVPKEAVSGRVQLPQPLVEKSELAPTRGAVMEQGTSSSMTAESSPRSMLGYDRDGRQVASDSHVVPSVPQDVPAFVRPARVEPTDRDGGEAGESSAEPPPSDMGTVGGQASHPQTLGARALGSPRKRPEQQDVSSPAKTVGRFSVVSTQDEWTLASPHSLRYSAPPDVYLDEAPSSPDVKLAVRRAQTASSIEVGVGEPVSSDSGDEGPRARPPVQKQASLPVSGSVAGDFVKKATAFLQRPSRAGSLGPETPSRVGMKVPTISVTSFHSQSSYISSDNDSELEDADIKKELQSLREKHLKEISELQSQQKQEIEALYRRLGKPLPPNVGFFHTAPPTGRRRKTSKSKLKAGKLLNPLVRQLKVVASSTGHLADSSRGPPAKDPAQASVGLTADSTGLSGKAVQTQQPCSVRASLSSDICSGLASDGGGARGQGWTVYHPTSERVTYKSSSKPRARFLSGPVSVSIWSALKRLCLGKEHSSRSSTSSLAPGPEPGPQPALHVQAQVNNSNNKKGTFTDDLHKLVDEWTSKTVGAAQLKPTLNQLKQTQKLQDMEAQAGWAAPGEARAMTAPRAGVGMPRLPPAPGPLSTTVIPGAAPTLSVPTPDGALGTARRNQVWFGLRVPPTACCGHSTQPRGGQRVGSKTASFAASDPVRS
Sequence of Serine/threonine-protein kinase 25 (Homo sapiens) (O00506 whole entry, looked up): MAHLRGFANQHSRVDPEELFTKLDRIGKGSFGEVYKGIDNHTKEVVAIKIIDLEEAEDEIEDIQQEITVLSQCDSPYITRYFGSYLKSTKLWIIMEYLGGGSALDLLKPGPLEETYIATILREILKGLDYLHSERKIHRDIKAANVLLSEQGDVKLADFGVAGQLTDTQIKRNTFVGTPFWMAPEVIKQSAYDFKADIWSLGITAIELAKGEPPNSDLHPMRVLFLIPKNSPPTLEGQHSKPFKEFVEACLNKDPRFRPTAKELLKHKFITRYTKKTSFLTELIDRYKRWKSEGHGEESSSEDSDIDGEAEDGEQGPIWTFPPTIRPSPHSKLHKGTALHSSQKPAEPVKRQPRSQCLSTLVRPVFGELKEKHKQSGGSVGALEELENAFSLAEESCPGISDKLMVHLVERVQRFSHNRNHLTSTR
Sequence of Mitogen-activated protein kinase kinase kinase 4 (Homo sapiens) (Q9Y6R4 whole entry): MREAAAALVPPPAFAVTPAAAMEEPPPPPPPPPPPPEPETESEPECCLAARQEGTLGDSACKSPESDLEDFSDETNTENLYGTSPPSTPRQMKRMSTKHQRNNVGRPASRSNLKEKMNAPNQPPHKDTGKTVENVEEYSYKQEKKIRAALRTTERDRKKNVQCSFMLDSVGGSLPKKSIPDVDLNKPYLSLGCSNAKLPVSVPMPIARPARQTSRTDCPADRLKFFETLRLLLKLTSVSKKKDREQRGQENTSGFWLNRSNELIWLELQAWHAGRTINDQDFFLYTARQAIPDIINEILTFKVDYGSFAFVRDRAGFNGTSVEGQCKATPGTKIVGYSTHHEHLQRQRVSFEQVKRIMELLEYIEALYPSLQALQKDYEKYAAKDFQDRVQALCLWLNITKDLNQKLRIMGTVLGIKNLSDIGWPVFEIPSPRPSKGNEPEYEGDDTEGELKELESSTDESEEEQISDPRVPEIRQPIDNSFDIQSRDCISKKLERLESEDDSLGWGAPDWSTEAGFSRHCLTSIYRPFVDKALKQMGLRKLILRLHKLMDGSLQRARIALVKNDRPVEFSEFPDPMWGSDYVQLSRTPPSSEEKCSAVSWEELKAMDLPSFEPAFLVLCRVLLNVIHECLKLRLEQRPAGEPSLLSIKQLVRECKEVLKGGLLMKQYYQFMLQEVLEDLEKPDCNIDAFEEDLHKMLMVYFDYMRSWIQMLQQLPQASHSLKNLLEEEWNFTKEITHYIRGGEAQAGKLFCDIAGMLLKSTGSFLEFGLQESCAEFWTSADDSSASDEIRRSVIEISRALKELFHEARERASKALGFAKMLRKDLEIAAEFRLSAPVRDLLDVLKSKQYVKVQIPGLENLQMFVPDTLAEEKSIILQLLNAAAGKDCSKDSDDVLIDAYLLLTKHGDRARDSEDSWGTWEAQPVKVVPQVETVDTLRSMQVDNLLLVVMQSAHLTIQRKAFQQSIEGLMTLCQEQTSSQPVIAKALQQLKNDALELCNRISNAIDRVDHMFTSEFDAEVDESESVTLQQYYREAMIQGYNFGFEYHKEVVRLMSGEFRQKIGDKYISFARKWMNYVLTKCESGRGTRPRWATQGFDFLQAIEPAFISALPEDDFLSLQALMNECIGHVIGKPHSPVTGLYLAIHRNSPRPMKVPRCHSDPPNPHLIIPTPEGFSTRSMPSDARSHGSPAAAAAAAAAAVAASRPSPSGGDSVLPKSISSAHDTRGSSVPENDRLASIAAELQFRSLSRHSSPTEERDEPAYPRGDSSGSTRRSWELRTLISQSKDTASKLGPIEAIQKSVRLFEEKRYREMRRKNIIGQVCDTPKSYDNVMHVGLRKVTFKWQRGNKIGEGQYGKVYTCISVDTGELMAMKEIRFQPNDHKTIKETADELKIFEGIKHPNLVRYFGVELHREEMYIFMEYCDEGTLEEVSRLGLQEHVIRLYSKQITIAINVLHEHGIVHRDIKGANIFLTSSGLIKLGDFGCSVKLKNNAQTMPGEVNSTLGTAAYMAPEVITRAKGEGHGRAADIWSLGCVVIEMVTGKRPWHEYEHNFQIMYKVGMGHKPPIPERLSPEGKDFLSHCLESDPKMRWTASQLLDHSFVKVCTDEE
Sequence of Wee1-like protein kinase (Homo sapiens) (P30291 whole entry, looked up): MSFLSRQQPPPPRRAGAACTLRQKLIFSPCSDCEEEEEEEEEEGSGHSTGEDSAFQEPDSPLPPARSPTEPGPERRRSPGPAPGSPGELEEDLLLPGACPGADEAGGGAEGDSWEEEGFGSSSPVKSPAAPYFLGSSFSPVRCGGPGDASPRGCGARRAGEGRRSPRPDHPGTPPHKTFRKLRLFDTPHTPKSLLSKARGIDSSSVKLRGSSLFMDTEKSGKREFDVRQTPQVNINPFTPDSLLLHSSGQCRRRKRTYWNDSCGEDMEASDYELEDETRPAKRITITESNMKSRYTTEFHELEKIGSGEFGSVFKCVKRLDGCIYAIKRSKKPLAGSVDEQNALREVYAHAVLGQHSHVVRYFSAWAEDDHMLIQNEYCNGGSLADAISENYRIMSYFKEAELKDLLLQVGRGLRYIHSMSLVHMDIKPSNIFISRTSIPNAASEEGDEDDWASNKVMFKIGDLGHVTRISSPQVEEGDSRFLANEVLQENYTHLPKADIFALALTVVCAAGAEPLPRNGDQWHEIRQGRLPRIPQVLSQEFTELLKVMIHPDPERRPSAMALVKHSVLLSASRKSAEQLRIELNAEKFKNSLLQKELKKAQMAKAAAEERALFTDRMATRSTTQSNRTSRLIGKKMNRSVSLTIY

CCN(CC)CCCCNc1ncc2cc(-c3cc(OC)cc(OC)c3)c(NC(=O)NC(C)(C)C)nc2n1
% of control [1]: 100% | % of control [2]: 100%

CN(C)C/C=C/C(=O)Nc1ccc(C(=O)N2CCCC(Nc3ncc(Cl)c(-c4c[nH]c5ccccc45)n3)C2)cc1 (stereo unspecified)
% of control [3]: 92%

CN(C(=O)c1cnn2cccnc12)c1cc2c(cc1N1CCOCC1)C(=O)N(C[C@@H](F)C(C)(C)O)C2
dTM [4]: 0 K

CNC(=O)Nc1ccc(-c2nc(N3CC4CCC(C3)O4)c3cnn(C4CCC5(CC4)OCCO5)c3n2)cc1
% of control [5]: 92% | % of control [6]: 86%

N#Cc1cccc(-c2c[nH]c3ncnc(N4CCOCC4)c23)c1
% of control [7]: 100%

C=CC(=O)Nc1cc(-n2c(=O)ccc3cnc4ccc(-c5ccc(NS(C)(=O)=O)cc5)cc4c32)ccc1C
% of control ([8]; at 1 µM): 89% | % of control ([8]; at 10 µM): 100%

Cc1cc([C@@H](C)Nc2ccccc2C(=O)O)c2nc(N3CCOCC3)cc(=O)n2c1 [AZD-6482]
% of control [9]: 100%

CC[C@@H]1[C@H](F)C(=O)N[C@@H]1COc1nccc2cc(C(N)=O)c(OC)cc12 [ZIMLOVISERTIB]
% of inhibition ([10]; at 0.01 µM): 10.1% | % of inhibition ([10]; at 0.04 µM): 23.3% | % of inhibition ([10]; at 0.2 µM): 9.7% | % of inhibition ([10]; at 1 µM): 3.1% | % of inhibition ([10]; at 5 µM): 3% | % of inhibition ([11]; at 0.01 µM): 6.3% | % of inhibition ([11]; at 0.04 µM): 19.8% | % of inhibition ([11]; at 0.2 µM): 55.9% | % of inhibition ([11]; at 1 µM): 83.6% | % of inhibition ([11]; at 5 µM): 93.9%

COc1cc(N(C)c2ccnc3ccc(C(F)(F)F)cc23)cc(OC)c1OC
% binding [12]: 77% | % binding [13]: 100%

C=CC(=O)Nc1cccc(C(=O)Nc2ccc(Nc3cc(-c4[nH]c(SC)nc4C)ccn3)cc2)c1
% of control ([14]; at 1 µM): 88% | % of control ([14]; at 5 µM): 95%

COc1cc(Nc2nc(C)cc(-c3cnn4nc(OC)ccc34)n2)cc(C(F)(F)F)c1
% of control [15]: 70%

Cn1cc(-n2cnc3c(NCc4nc5cc(Cl)c(Cl)cc5[nH]4)nc(N4CCOCC4)nc32)cn1
% of control [16]: 19%
